Test results: patent US9511073B2, “Aromatic amides and uses thereof” (TAXIS Pharmaceuticals, Inc., priority 2011, dated 2016)
Converted amounts (≈) assume the structure as drawn. Where two headings read alike, the source gives them in different places.

Tests used:
[1] = test system: FtsZ-G196A Staphylococcus aureus (Isolate ID GG/190723/sa/1.2); assay: Bacterial assay: MIC, FtsZ G196A mutant strain; type: cell-based; settings: read-out: MIC (μg/mL) G196A mutant strain
Description: (§1) Compounds are tested for antimicrobial activity by susceptibility testing in liquid or on solid media. Minimum inhibitory concentrations (MICs) for compounds against each strain are determined by the broth microdilution or agar dilution method according to the guidelines of the Clinical Laboratories and Standards Institute, formerly the National Committee for Clinical Laboratory Standards (Clinical Laboratories and Standards Institute. Methods for Dilution Antimicrobial Susceptibility Tests for Bacteria That Grow Aerobically; Approved Standard—Seventh Edition. Document M7-A7. CLSI, Wayne, Pa., 2006; Clinical Laboratories and Standards Institute). The bacterial strains tested include S. aureus (Staphylococcus aureus (Isolate ID ATCC 29213)) and an FtsZ mutant of this isolate (FtsZ-G196A Staphylococcus aureus (Isolate ID GG/190723/sa/1.2)). Compound MICs were determined to be in the following activity ranges “A” activity≦0.25 μg/mL; “B” activity>0.25 μg/mL-1.0 μg/mL; “C” activity>1.0 μg/mL-16 μg/mL; “D” activity>16 μg/mL and ND=not determined. The bracketed entries indicate entantiomer(s) and their activity.
The comparative activity of selected compounds having a bromo-substituted oxazole against their corresponding non-brominated analogues is shown in Table 4.

[2] = test system: Staphylococcus aureus (Isolate ID ATCC 29213); assay: Bacterial assay: MIC by broth microdilution or agar dilution (CLSI), S. aureus ATCC 29213; type: cell-based; settings: Staphylococcus aureus
Method in brief: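 MICs by CLSI broth microdilution or agar dilution against S. aureus ATCC 29213 and its FtsZ-G196A mutant. Values reported as ranges: A ≤0.25 μg/mL, B >0.25–1.0, C >1.0–16, D >16 μg/mL.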

S. hominis ATCC 27844 = assay: MIC, staphylococcal panel; type: cell-based; settings: Staphylococcus hominis, ATCC27844
Description: as §1
(§2) Selected compounds were also tested against a panel of target strains and their MICs are shown in Table 3 against the gold standard Linezolid. […] The activity of the compounds observed against S. aureus was also shown to be maintained within a narrow range across the staphylococcal panel tested.

[3] = test system: S. lugdunensis ATCC 43809; assay: MIC, staphylococcal panel; type: cell-based; settings: Staphylococcus lugdunensis, ATCC43809
Description: as §1, §2

[4] = test system: S. saprophyticus ATCC 43809; assay: MIC, staphylococcal panel; type: cell-based; settings: Staphylococcus saprophyticus, ATCC43809
Description: as §1, §2

[5] = test system: S. haemolyticus ATCC 29970; assay: MIC, staphylococcal panel; type: cell-based; settings: Staphylococcus haemolyticus, ATCC29970
Description: as §1, §2

S. warneri ATCC 49454 = assay: MIC, staphylococcal panel; type: cell-based; settings: Staphylococcus warneri, ATCC49454
Description: as §1, §2

[6] = test system: S. epidermidis ATCC 12228; assay: MIC, staphylococcal panel; type: cell-based; settings: Staphylococcus epidermidis, ATCC12228
Description: as §1, §2

[7] = test system: S. aureus ATCC 19636 (Smith); assay: MIC, staphylococcal panel; type: cell-based; settings: Staphylococcus aureus, ATCC19636
Description: as §1, §2

[8] = test system: S. aureus ATCC 43300 (MRSA); assay: microbe, parasite or virus in culture; type: cell-based; settings: Staphylococcus aureus
Description: as §1, §2

[9] = test system: S. aureus ATCC BAA-44 (MDRSA); assay: microbe, parasite or virus in culture; type: cell-based; settings: Staphylococcus aureus, ATCCBAA44
Description: as §1, §2

[10] = Pharmacokinetic assay: plasma concentration by LC/MS/MS after single intravenous or peroral dose of 3 mg/kg; type: in vivo; settings: mouse, plasma, 3 mg/kg IV dosing in mice; for AUC: read-out: AUC
Description: The pharmacokinetic profiles of selected comparator compounds A-N in Table 6 and compounds of the invention were determined by measuring the compound concentration in plasma by LC/MS/MS following a single intravenous or peroral administration of the compounds at a dose of 3 mg/kg. The concentrations described are the mean plasma concentrations at each time point from three animals. Intravenous dose formulation was administered as a single bolus dose through the tail vein. Oral dose formulation was administered to animals by an oral gavage needle. In both cases the dose volume was 5.0 mL/kg. Blood was collected from anesthetized mice through a capillary guided into the retro-orbital plexus. The collected blood was centrifuged to obtain plasma and the compounds extracted into methanol prior to determining the compound concentration by LC/MS/MS. The results are shown graphically in FIG. 1 and for the AUC and CL parameters in Table 6.

[11] = ATCC29213, Staphylococcus aureus ATCC 29213, Table 3 panel
[12] = ATCC29213, read-out: MIC (μg/mL) S. aureus (ATCC29213), Table 5, racemate and enantiomers
[13] = ATCC29213, read-out: S. aureus MIC (μg/mL) Activity Range, S. aureus (ATCC29213)

NC(=O)c1c(F)ccc(OC(CO)c2nc(-c3ccc(F)cc3F)c(Br)o2)c1F (racemic) [Compound 233, 3-(1-(5-bromo-4-(2,4-difluorophenyl)oxazol-2-yl)-2-hydroxyethoxy)-2,6-difluorobenzamide]
MIC [1]: 8 µg/mL (≈ 16.8 µM) | MIC [2, 11]: 0.25 µg/mL (≈ 0.526 µM) | MIC [2, 12]: 0.25 µg/mL (≈ 0.526 µM) | MIC [2, 13]: < 0.25 µg/mL | MIC (S. hominis ATCC 27844): 0.5 µg/mL (≈ 1.05 µM) | MIC [3]: 0.5 µg/mL (≈ 1.05 µM) | MIC [4]: 0.5 µg/mL (≈ 1.05 µM) | MIC [5]: 0.5 µg/mL (≈ 1.05 µM) | MIC (S. warneri ATCC 49454): 0.5 µg/mL (≈ 1.05 µM) | MIC [6]: 0.5 µg/mL (≈ 1.05 µM) | MIC [7]: 0.25 µg/mL (≈ 0.526 µM) | MIC [8]: 0.5 µg/mL (≈ 1.05 µM) | MIC [9]: 0.25 µg/mL (≈ 0.526 µM) | clearance [10]: 18 mL/min/kg | AUC [10]: 2300 ng·h/mL

NC(=O)c1c(F)ccc(O[C@H](CO)c2nc(-c3ccc(C(F)(F)F)cc3)c(Br)o2)c1F (single isomer, unassigned) [Compound 38B]
MIC [1]: 2 µg/mL (≈ 3.94 µM) | MIC [2, 11]: 0.125 µg/mL (≈ 0.246 µM) | MIC [2, 12]: 0.125 µg/mL (≈ 0.246 µM) | MIC [2, 13]: < 0.25 µg/mL | MIC (S. hominis ATCC 27844): 0.125 µg/mL (≈ 0.246 µM) | MIC [3]: 0.25 µg/mL (≈ 0.493 µM) | MIC [4]: 0.06 µg/mL (≈ 0.118 µM) | MIC [5]: 0.125 µg/mL (≈ 0.246 µM) | MIC (S. warneri ATCC 49454): 0.25 µg/mL (≈ 0.493 µM) | MIC [6]: 0.125 µg/mL (≈ 0.246 µM) | MIC [7]: 0.125 µg/mL (≈ 0.246 µM) | MIC [8]: 0.125 µg/mL (≈ 0.246 µM) | MIC [9]: 0.125 µg/mL (≈ 0.246 µM) | clearance [10]: 12 mL/min/kg | AUC [10]: 4000 ng·h/mL
